Values quoted from earlier work in US20040039052A1, “Urinary incontinence therapy” (priority 1997, published 2004).

Tests used:
[1] = system: vanilloid receptor-mediated release of tachykinins in the rat urinary bladder; settings: rats with experimentally induced hypertrophy; cited from earlier work
[2] = system: patients with detrusor hyperreflexia (DH); settings: intravesical instillation; cited from earlier work
bladder afferents = settings: rats; intravesicular 10-100 μmol; cited from earlier work

## COc1cc(CNC(=O)CCCC/C=C/C(C)C)ccc1O [CAP, capsaicin, reference compound]
[1]
  reducing symptoms in rats having an experimentally induced hypertrophy: effective in reducing symptoms
[2]
  period after treatment when symptoms deteriorate: 2 to 4 days
  tolerability upon instillation: intense burning and pain in the lower abdomen upon instillation
Bladder afferents
  desensitization of bladder afferents: long-lasting desensitization of bladder afferents
